# “And” between values parts separate entries of the source, which are not always exact repeats. Equal entries are not always repeated.
# Legend:
# [1] = Dissolution test of capsules (Chinese Pharmacopoeia 2015, General Method 0931, 2nd Method); type: physicochemical
# Method: The hydrates obtained hereinabove and the compound of formula A were tested for dissolution rate. The test method was as follows.
# Step 1: Pretreating Raw Materials
# The samples were passed through a 100 mesh sieve.
# Step 2: Blending Raw Materials with Auxiliary Materials
# The raw materials and lactose were weighed according to the prescription, mixed in equal increment, sieved and mixed.
# The capsules were filled via a capsule filling plate and sealed. The difference of the filling amount was controlled to ±5%. The appearance was inspected to ensure that the sealing was correct and there was no split or deformation.
# Test method: dissolution test method (Chinese Pharmacopoeia, edited in 2015, Chapter 4, General Method 0931, the 2nd Method)
# Dissolution medium: aqueous solution
# Specific test method: The sample was tested following the dissolution test method (Chinese Pharmacopoeia, edited in 2015, Chapter 4, General Method 0931, the 2nd Method). 900 ml aqueous solution was used as the dissolution medium. The speed was 50 rpm. The test was performed in accordance with the method. […] After filtration, the filtrate was precisely measured and quantitatively diluted with the dissolution medium to prepare a solution containing about 10 μg of sample per 1 ml. The absorbance was measured by at 231 nm by UV-Vis spectrophotometry (Chinese Pharmacopoeia, edited in 2015, Chapter 4, General Method 0931, the 2nd Method). An appropriate amount of the control sample was taken, weighed accurately, dissolved in dissolution medium and diluted quantitatively to prepare a solution containing about 10 μg of the sample per 1 ml, and then measured in the same way. The amount of dissolution per capsule was calculated.
# CS-induced ALI mice [2] = experiment: CS-induced lung injury model: lung weight ratio (coefficient); type: in vivo, Balb/c mice; settings: CT-NA 10 and 30 mg/kg intragastric; CS exposure; p<0.05
# Method: Model preparation: The mice were randomly divided into 5 groups (12 mice in each group), which were the control group (the mice were exposed to fresh air), the saline group (the mice were exposed to cigarette smoke), dexamethasone (Dex) group (1 mg/kg) (the mice were exposed to cigarette smoke), CT-NA 10 mg/kg group and CT-NA 30 mg/kg group (the mice were exposed to cigarette smoke). According to the grouping, the mice were intragastrically administered saline, Dex and CT-NA, respectively. Thereafter, the mice were exposed to fresh air or cigarette smoke generated from 3R4F research-grade cigarettes (containing about 600 mg TPM/m^3 and 29.9 mg nicotine/m^3) in a cuboid plastic box (65×50x×45 cm). Ten cigarettes were burned every day for seven days. After one cigarette was burned, the next cigarette was ignited. […] 24 hrs after the last exposure to the cigarette smoke, the partial pressure of oxygen (PO2) of all mice was measured by the Moor VMS-OXY™ measuring instrument, which was used to measure the oxygenated/deoxygenated hemoglobin concentration and oxygen saturation (percentage) in the microcirculation at the wavelength range of 500 to 650 nm. […] As an index of pulmonary edema, the lung weight ratio was measured by dividing the individual lung weight of each mouse after aspirating the blood tissue from the lung surface, by the total body weight.
# CS-induced ALI mice [3] = experiment: CS-induced lung injury model: albumin assay in BALF; type: in vivo, Balb/c mice; settings: CT-NA 10 and 30 mg/kg intragastric; CS exposure; p<0.01
# Method: Model preparation: The mice were randomly divided into 5 groups (12 mice in each group), which were the control group (the mice were exposed to fresh air), the saline group (the mice were exposed to cigarette smoke), dexamethasone (Dex) group (1 mg/kg) (the mice were exposed to cigarette smoke), CT-NA 10 mg/kg group and CT-NA 30 mg/kg group (the mice were exposed to cigarette smoke). According to the grouping, the mice were intragastrically administered saline, Dex and CT-NA, respectively. Thereafter, the mice were exposed to fresh air or cigarette smoke generated from 3R4F research-grade cigarettes (containing about 600 mg TPM/m^3 and 29.9 mg nicotine/m^3) in a cuboid plastic box (65×50x×45 cm). Ten cigarettes were burned every day for seven days. After one cigarette was burned, the next cigarette was ignited. The daily body weight and general condition of the mice were checked. 24 hrs after the last exposure to the cigarette smoke, the partial pressure of oxygen (PO2) of all mice was measured by the Moor VMS-OXY™ measuring instrument, which was used to measure the oxygenated/deoxygenated hemoglobin concentration and oxygen saturation (percentage) in the microcirculation at the wavelength range of 500 to 650 nm. […] The albumin concentration ratio assessed from BALF represented not only the albumin level but also the permeability of the pulmonary microvascular.
smiles,measurement,setting,value
CN([C@@H]1CCc2c(CC(=O)[O-])c3cccnc3n2C1)S(=O)(=O)c1ccc(F)cc1.[Na+] [Sodium salt hydrate],"Dissolution rate, Mean (%), 5 min","[1]; mean of 6 capsules, purified water, 50 rpm, 5 min",50.5%
same,"Dissolution rate, Mean (%), 10 min","[1]; mean of 6 capsules, purified water, 50 rpm, 10 min",76.6%
same,"Dissolution rate, Mean (%), 15 min","[1]; mean of 6 capsules, purified water, 50 rpm, 15 min",92.1%
same,"Dissolution rate, Mean (%), 20 min","[1]; mean of 6 capsules, purified water, 50 rpm, 20 min",98.6%
same,"Dissolution rate, Mean (%), 30 min","[1]; mean of 6 capsules, purified water, 50 rpm, 30 min",100.6%
same,"Dissolution rate, Mean (%), 45 min","[1]; mean of 6 capsules, purified water, 50 rpm, 45 min",100.8%
same,dissolution rate (in words),"[1]; same method, aqueous dissolution medium",best dissolution rate
same,"Dissolution rate, 5 min","[1]; single capsules 1-6, purified water, 50 rpm, 5 min, hydrate",55.8% and 34.3% and 57.9% and 45.5% and 56.7% and 52.8%
same,"Dissolution rate, 10 min","[1]; single capsules 1-6, purified water, 50 rpm, 10 min, hydrate",77.8% and 82.6% and 69.0% and 73.6% and 62.2% and 94.6%
same,"Dissolution rate, 15 min","[1]; single capsules 1-6, purified water, 50 rpm, 15 min, hydrate",96.6% and 79.1% and 91.7% and 93.3% and 99.1% and 92.7%
same,"Dissolution rate, 20 min","[1]; single capsules 1-6, purified water, 50 rpm, 20 min, hydrate",101.8% and 94.8% and 96.2% and 98.3% and 100.1% and 100.2%
same,"Dissolution rate, 30 min","[1]; single capsules 1-6, purified water, 50 rpm, 30 min, hydrate",103.4% and 100.7% and 98.0% and 99.1% and 102.2% and 100.2%
same,"Dissolution rate, 45 min","[1]; single capsules 1-6, purified water, 50 rpm, 45 min, hydrate",102.8% and 101.5% and 97.5% and 99.7% and 102.7% and 100.9%
same,lung weight coefficient,CS-induced ALI mice [2],partially reduced
same,BALF albumin contents,CS-induced ALI mice [3],remarkably reduced
